Converted amounts (≈) assume the structure as drawn.
Legend:
Format in all cases: cell-based
[1] = test system: Staphylococcus aureus FDA 209PJc-1; assay: Antibacterial activity, agar-dilution MIC, organism No. 1
Summary of the method: (§1)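 An agar-dilution procedure on bouillon-agar medium was applied, and each MIC was recorded as micrograms of specimen per ml of medium.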

[2] = test system: Staphylococcus aureus Terajima; assay: Antibacterial activity, agar-dilution MIC, organism No. 2
Summary of the method: as §1

[3] = test system: Staphylococcus aureus MS 353; assay: Antibacterial activity, agar-dilution MIC, organism No. 3
Summary of the method: as §1

[4] = test system: Streptococcus pyogenes Cook; assay: Antibacterial activity, agar-dilution MIC, organism No. 4
Summary of the method: as §1

[5] = test system: Escherichia coli NIHJ-JC-2; assay: Antibacterial activity, agar-dilution MIC, organism No. 5
Summary of the method: as §1

[6] = test system: Escherichia coli K12 C600 IAM 1264; assay: Antibacterial activity, agar-dilution MIC, organism No. 6
Summary of the method: as §1

[7] = test system: Klebsiella pneumoniae PCI-602; assay: Antibacterial activity, agar-dilution MIC, organism No. 7
Summary of the method: as §1

[8] = test system: Salmonella typhimurium IID 971; assay: Antibacterial activity, agar-dilution MIC, organism No. 8
Summary of the method: as §1

Salmonella typhi 901 = assay: Antibacterial activity, agar-dilution MIC, organism No. 9
Summary of the method: as §1

[9] = test system: Salmonella paratyphi-A 1015; assay: Antibacterial activity, agar-dilution MIC, organism No. 10
Summary of the method: as §1

[10] = test system: Salmonella shottmuelleri 8006; assay: Antibacterial activity, agar-dilution MIC, organism No. 11
Summary of the method: as §1

[11] = test system: Salmonella enteritidis G 14; assay: Antibacterial activity, agar-dilution MIC, organism No. 12
Summary of the method: as §1

[12] = test system: Serratia marcescens IAM 1184; assay: Antibacterial activity, agar-dilution MIC, organism No. 13
From the text: Agar-dilution method was used for determination of the antibacterial activity and antifungal activity while using bouillon-agar culture medium, and the minimum inhibitory concentration of the specimen was expressed by μg/ml of the culture medium.

[13] = test system: Bacillus subtilis ATCC 6633; assay: Antibacterial activity, agar-dilution MIC, organism No. 14
Summary of the method: as §1

[14] = test system: Pseudomonas aeruginosa IFO 3445; assay: Antibacterial activity, agar-dilution MIC, organism No. 15
Summary of the method: as §1

[15] = test system: Pseudomonas aeruginosa NCTC 10490; assay: Antibacterial activity, agar-dilution MIC, organism No. 16
Summary of the method: as §1

[16] = test system: Pseudomonas aeruginosa PAO 1; assay: Antibacterial activity, agar-dilution MIC, organism No. 17
Summary of the method: as §1

[17] = test system: Proteus morganii IFO 3848; assay: Antibacterial activity, agar-dilution MIC, organism No. 18
Summary of the method: as §1

[18] = test system: Proteus mirabilis IFO 3849; assay: Antibacterial activity, agar-dilution MIC, organism No. 19
Summary of the method: as §1

Proteus vulgaris OX-19 = assay: Antibacterial activity, agar-dilution MIC, organism No. 20
Summary of the method: as §1

Proteus vulgaris HX-19 = assay: Antibacterial activity, agar-dilution MIC, organism No. 21
Summary of the method: as §1

[19] = test system: Proteus rettgeri IFO 3850; assay: Antibacterial activity, agar-dilution MIC, organism No. 22
Summary of the method: as §1

[20] = test system: Enterobacter aerogenes ATCC 13048; assay: Antibacterial activity, agar-dilution MIC, organism No. 23
Summary of the method: as §1

Enterobacter cloacae 963 = assay: Antibacterial activity, agar-dilution MIC, organism No. 24
Summary of the method: as §1

[21] = test system: Micrococcus luteus ATCC 9341; assay: Antibacterial activity, agar-dilution MIC, organism No. 25
Summary of the method: as §1

[22] = test system: Streptococcus pyogenes IFO 3340; assay: Antibacterial activity, agar-dilution MIC, organism No. 26
Summary of the method: as §1

[23] = test system: Streptococcus faecium IFO 3826; assay: Antibacterial activity, agar-dilution MIC, organism No. 27
Summary of the method: as §1

[24] = test system: Candida albicans IAM 4905; assay: Antifungal activity, agar-dilution MIC, organism No. 29
Summary of the method: as §1

[25] = test system: Aspergillus niger IFO 6342; assay: Antifungal activity, agar-dilution MIC, organism No. 30
Summary of the method: as §1

[C-]#[N+]C12CC3(/C=C/C(=O)NC4OC(COC(C)=O)C(OC(C)=O)C(OC(C)=O)C4OC(C)=O)OC3C1O2 (stereo not shown) [compound 69]
Minimum Inhibitory Concentration ([1]; Organism No. 1, bouillon-agar): 100 µg/mL
Minimum Inhibitory Concentration ([2]; Organism No. 2, bouillon-agar): > 200 µg/mL
Minimum Inhibitory Concentration ([3]; Organism No. 3, bouillon-agar): 100 µg/mL
Minimum Inhibitory Concentration ([4]; Organism No. 4, bouillon-agar): > 200 µg/mL
Minimum Inhibitory Concentration ([5]; Organism No. 5, bouillon-agar): > 200 µg/mL
Minimum Inhibitory Concentration ([6]; Organism No. 6, bouillon-agar): > 200 µg/mL
Minimum Inhibitory Concentration ([7]; Organism No. 7, bouillon-agar): > 200 µg/mL
Minimum Inhibitory Concentration ([8]; Organism No. 8, bouillon-agar): > 200 µg/mL
Minimum Inhibitory Concentration (Salmonella typhi 901; Organism No. 9, bouillon-agar): > 200 µg/mL
Minimum Inhibitory Concentration ([9]; Organism No. 10, bouillon-agar): 200 µg/mL
Minimum Inhibitory Concentration ([10]; Organism No. 11, bouillon-agar): > 200 µg/mL
Minimum Inhibitory Concentration ([11]; Organism No. 12, bouillon-agar): > 200 µg/mL
Minimum Inhibitory Concentration ([12]; Organism No. 13, bouillon-agar): > 200 µg/mL
Minimum Inhibitory Concentration ([13]; Organism No. 14, bouillon-agar): > 200 µg/mL
Minimum Inhibitory Concentration ([14]; Organism No. 15, bouillon-agar): > 200 µg/mL
Minimum Inhibitory Concentration ([15]; Organism No. 16, bouillon-agar): > 200 µg/mL
Minimum Inhibitory Concentration ([16]; Organism No. 17, bouillon-agar): > 200 µg/mL
Minimum Inhibitory Concentration ([17]; Organism No. 18, bouillon-agar): > 200 µg/mL
Minimum Inhibitory Concentration ([18]; Organism No. 19, bouillon-agar): > 200 µg/mL
Minimum Inhibitory Concentration (Proteus vulgaris OX-19; Organism No. 20, bouillon-agar): > 200 µg/mL
Minimum Inhibitory Concentration (Proteus vulgaris HX-19; Organism No. 21, bouillon-agar): > 200 µg/mL
Minimum Inhibitory Concentration ([19]; Organism No. 22, bouillon-agar): > 200 µg/mL
Minimum Inhibitory Concentration ([20]; Organism No. 23, bouillon-agar): > 200 µg/mL
Minimum Inhibitory Concentration (Enterobacter cloacae 963; Organism No. 24, bouillon-agar): > 200 µg/mL
Minimum Inhibitory Concentration ([21]; Organism No. 25, bouillon-agar): 100 µg/mL
Minimum Inhibitory Concentration ([22]; Organism No. 26, bouillon-agar): 50 µg/mL
Minimum Inhibitory Concentration ([23]; Organism No. 27, bouillon-agar): > 200 µg/mL
Minimum Inhibitory Concentration ([24]; Organism No. 29, bouillon-agar): 100 µg/mL
Minimum Inhibitory Concentration ([25]; Organism No. 30, bouillon-agar): 100 µg/mL

[C-]#[N+]C12CC3(/C=C/C(=O)Nc4nc[nH]n4)OC3C1O2 (stereo not shown) [compound 78]
MIC ([1]; Staphylococcus aureus, FDA209PJC1, read-out: Minimum Inhibitory Concentration): 50 µg/mL (≈ 193 µM)
MIC ([2]; Staphylococcus aureus, read-out: Minimum Inhibitory Concentration): 200 µg/mL (≈ 772 µM)
MIC ([3]; Staphylococcus aureus, MS353, read-out: Minimum Inhibitory Concentration): 50 µg/mL (≈ 193 µM)
MIC ([4]; Streptococcus pyogenes, read-out: Minimum Inhibitory Concentration): 100 µg/mL (≈ 386 µM)
MIC ([5]; Escherichia coli, NIHJJC2, read-out: Minimum Inhibitory Concentration): 100 µg/mL (≈ 386 µM)
MIC ([6]; Escherichia coli, IAM1264, read-out: Minimum Inhibitory Concentration): 100 µg/mL (≈ 386 µM)
MIC ([7]; Klebsiella pneumoniae, PCI602, read-out: Minimum Inhibitory Concentration): 200 µg/mL (≈ 772 µM)
MIC ([8]; Salmonella enterica, read-out: Minimum Inhibitory Concentration): 100 µg/mL (≈ 386 µM)
MIC (Salmonella typhi 901; Salmonella enterica, TYPHI, read-out: Minimum Inhibitory Concentration): 25 µg/mL (≈ 96.4 µM)
MIC ([9]; Salmonella enterica, PARATYPHI, read-out: Minimum Inhibitory Concentration): 50 µg/mL (≈ 193 µM)
MIC ([10]; Salmonella, 8006, read-out: Minimum Inhibitory Concentration): 50 µg/mL (≈ 193 µM)
MIC ([11]; Salmonella enterica, ENTERITIDIS, read-out: Minimum Inhibitory Concentration): 50 µg/mL (≈ 193 µM)
MIC ([12]; Serratia marcescens, IAM1184, read-out: Minimum Inhibitory Concentration): > 200 µg/mL
MIC ([13]; Bacillus subtilis, ATCC6633, read-out: Minimum Inhibitory Concentration): 100 µg/mL (≈ 386 µM)
MIC ([14]; Pseudomonas aeruginosa, IFO3445, read-out: Minimum Inhibitory Concentration): > 200 µg/mL
MIC ([15]; Pseudomonas aeruginosa, NCTC10490, read-out: Minimum Inhibitory Concentration): > 200 µg/mL
MIC ([16]; Pseudomonas aeruginosa, PAO1, read-out: Minimum Inhibitory Concentration): > 200 µg/mL
MIC ([17]; Morganella morganii, IFO3848, read-out: Minimum Inhibitory Concentration): 50 µg/mL (≈ 193 µM)
MIC ([18]; Proteus mirabilis, IFO3849, read-out: Minimum Inhibitory Concentration): 200 µg/mL (≈ 772 µM)
MIC (Proteus vulgaris OX-19; Proteus vulgaris, OX19, read-out: Minimum Inhibitory Concentration): 50 µg/mL (≈ 193 µM)
MIC (Proteus vulgaris HX-19; Proteus vulgaris, HX19, read-out: Minimum Inhibitory Concentration): 50 µg/mL (≈ 193 µM)
MIC ([19]; Providencia rettgeri, IFO3850, read-out: Minimum Inhibitory Concentration): 200 µg/mL (≈ 772 µM)
MIC ([20]; Klebsiella aerogenes, ATCC13048, read-out: Minimum Inhibitory Concentration): > 200 µg/mL
MIC (Enterobacter cloacae 963; Enterobacter cloacae, 963, read-out: Minimum Inhibitory Concentration): > 200 µg/mL
MIC ([21]; Micrococcus luteus, ATCC9341, read-out: Minimum Inhibitory Concentration): 100 µg/mL (≈ 386 µM)
MIC ([22]; Streptococcus pyogenes, IFO3340, read-out: Minimum Inhibitory Concentration): 100 µg/mL (≈ 386 µM)
MIC ([23]; Enterococcus faecium, IFO3826, read-out: Minimum Inhibitory Concentration): 200 µg/mL (≈ 772 µM)
MIC ([24]; Candida albicans, IAM4905, read-out: Minimum Inhibitory Concentration): > 200 µg/mL
MIC ([25]; Aspergillus niger, IFO6342, read-out: Minimum Inhibitory Concentration): 200 µg/mL (≈ 772 µM)
